Laboratory results as given in patent US20170156324A1 (Dow AgroSciences LLC, priority 2015, published 2017).
Several values for one entry are separate records, joined by “and”; a condition that tells them apart may be missing. Equal entries are not always repeated.

Experiments:
Assay type in all cases: in vivo
[1] = tested on: Stellaria media (L.) Vill. (common chickweed, STEME); assay: Field trial, post-emergence % visual weed control, STEME; details: 3.75 g ai/ha
Source text: (§1) Except for the trials utilizing the OD formulations, Actirob B was applied at 0.5 or 1.0 liters per hectare (L/ha), or Polyglycol 26-2 was applied at 0.5 to 1.0 L/ha in all respective single and tankmixture treatments being evaluated.
(§2) Trials were established as randomized complete blocks (RCBD) with three to four replicates. Individual treatments were 2-2.5 meters (m) wide and 6-20 m long. An untreated control was included in each trial. All trial sites had naturally occurring populations of weeds.
(§3) Herbicides were applied with backpack or bicycle sprayers using compressed air, nitrogen (N2) or carbon dioxide (CO2) as a propellant. All sprayers delivered a uniform spray pattern that provided thorough coverage of the foliage using a water volume of 150-300 L/ha. All herbicides were applied post-emergence in the spring to early-summer At the time of herbicide applications, winter wheat crops were at the six-leaf to three-tiller stage. Broadleaf and grass weeds were at a similar stage of growth at the time of herbicide application, typically from five leaf to 3 tiller depending on the weed species and time of year.
(§4) The treated plots and control plots were rated blind at various intervals after application. […] The control of the target weeds was visually assessed as percent control, compared to an untreated control plot. The assessments were based on a percent visual reduction in pest plant biomass and/or stand reduction of weed population.
(§5) The efficacy of all treatments was assessed at 13-22 days after application (DAA) for an early season rating, 23-39 DAA for a mid-season rating, and 41-84 DAA for a late-season rating. The data were statistically analyzed using various statistical methods, generally including a Tukey's HSD Factorial Analysis of Variance with a significance level of 5%.
(§6) Colby's equation was used to determine the herbicidal effects expected from the mixtures (Colby, S. R. Calculation of the synergistic and antagonistic response of herbicide combinations. Weeds 1967, 15, 20-22). A t-test (alpha=0.05) between Colby predictions and observed combinations was used to test for significant differences indicating synergy or antagonism using replicate data.
(§7) Expected=A+B+C−(AB+AC+BC)/100+(ABC)/10,000

[2] = tested on: Alopecurus myosuroides Huds. (blackgrass, ALOMY); assay: Field trial, post-emergence % visual weed control, ALOMY; details: 15DAA, 3 g ai/ha
Source text: as §1, §2, §3, §4, §5
(§8) Colby's equation was used to determine the herbicidal effects expected from the mixtures (Colby, S. R. Calculation of the synergistic and antagonistic response of herbicide combinations. Weeds 1967, 15, 20-22). […]

[3] = tested on: Solanum nigrum L. (black nightshade, SOLNI); assay: Field trial, post-emergence % visual weed control, SOLNI; details: 6.25 g ai/ha
Source text: as §1, §2, §3, §4, §5, §6, §7

[4] = tested on: Viola arvensis Murr. (field violet, VIOAR); assay: Field trial, post-emergence % visual weed control, VIOAR
Source text: as §1, §2, §3, §4, §5, §6, §7

[5] = tested on: Agropyron repens L. (quackgrass, AGRRE); assay: Field trial, post-emergence % visual weed control, AGRRE; details: 14DAA, 4 g ai/ha
Source text: as §1, §2, §3, §4, §5, §8

[6] = tested on: Lamium purpureum L. (purple deadnettle, LAMPU); assay: Field trial, post-emergence % visual weed control, LAMPU; details: 15DAA, 3.75 g ai/ha
Source text: as §1, §2, §3, §4, §5, §6, §7

[7] = tested on: Apera spica-venti (L.) Beauv. (windgrass, APESV); assay: Field trial, post-emergence % visual weed control, APESV
Source text: as §1, §2, §3, §4, §5, §6, §7

[8] = tested on: Galium aparine L. (catchweed bedstraw, GALAP); assay: Field trial, post-emergence % visual weed control, GALAP; details: 28DAA, 3 g ai/ha
Source text: as §1, §2, §3, §4, §5, §8

[9] = tested on: Consolida regalis S. F. Gray (branching larkspur, CNSRE); assay: Field trial, post-emergence % visual weed control, CNSRE
Source text: as §1, §2, §3, §4, §5, §6, §7

[10] = tested on: Echinochloa crus-galli (L.) P. Beauv. (barnyardgrass, ECHCG); assay: Field trial, post-emergence % visual weed control, ECHCG; details: 6.25 g ai/ha
Source text: as §1, §2, §3, §4, §5, §6, §7

[11] = tested on: Centaurea cyanus (cornflower, CENCY); assay: Field trial, post-emergence % visual weed control, CENCY
Source text: as §1, §2, §3, §4, §5, §6, §7

[12] = tested on: Matricaria recutita L. (wild chamomile, MATCH); assay: Field trial, post-emergence % visual weed control, MATCH; details: 3.75 g ai/ha
Source text: as §1, §2, §3, §4, §5, §6, §7

[13] = tested on: Matricaria inodora (scentless mayweed, MATIN); assay: Field trial, post-emergence % visual weed control, MATIN; details: 14DAA
Source text: as §1, §2, §3, §4, §5, §6, §7

## COc1ncc(F)c2nc(S(=O)(=O)Nc3c(F)cccc3F)nn12 [Florasulam, N-(2,6-difluorophenyl)-8-fluoro-5-methoxy[1,2,4]triazolo[1,5-c]pyrimidine-2-sulfonamide]
[1]; 15DAA
  Mean % Weed Control: 0.0%
[1]; 61DAA
  Mean % Weed Control: 68.8% and 56.1%
[1]; 78DAA
  Mean % Weed Control: 31.3%
[2]
  Mean % Weed Control: 2.5%
[3]; 29DAA
  Mean % Weed Control: 40.0%
[3]; 56DAA
  Mean % Weed Control: 20.0%
[4]; 14DAA, 3 g ai/ha
  Mean % Weed Control: 0.0%
[4]; 56DAA, 4 g ai/ha
  Mean % Weed Control: 20.0%
[5]
  Mean % Weed Control: 0.0%
[6]
  Mean % Weed Control: 0.0%
[7]; 14DAA, 3 g ai/ha
  Mean % Weed Control: 0.0%
[7]; 14DAA, 4 g ai/ha
  Mean % Weed Control: 0.0%
[7]; 28DAA, 3 g ai/ha
  Mean % Weed Control: 0.0%
[7]; 28DAA, 4 g ai/ha
  Mean % Weed Control: 0.0%
[7]; 56DAA, 3 g ai/ha
  Mean % Weed Control: 0.0%
[7]; 56DAA, 4 g ai/ha
  Mean % Weed Control: 0.0%
[8]
  Mean % Weed Control: 57.5%
[9]; 31DAA, 3 g ai/ha
  Mean % Weed Control: 75.0%
[9]; 31DAA, 4 g ai/ha
  Mean % Weed Control: 75.0%
[9]; 53DAA, 3 g ai/ha
  Mean % Weed Control: 78.5%
[9]; 53DAA, 4 g ai/ha
  Mean % Weed Control: 79.5%
[9]; 84DAA, 3 g ai/ha
  Mean % Weed Control: 79%
[9]; 84DAA, 4 g ai/ha
  Mean % Weed Control: 80%
[10]; 14DAA
  Mean % Weed Control: 20.0%
[10]; 29DAA
  Mean % Weed Control: 10.0%
[10]; 56DAA
  Mean % Weed Control: 10.0%
[11]; 28DAA, 3 g ai/ha
  Mean % Weed Control: 48.8%
[11]; 28DAA, 4 g ai/ha
  Mean % Weed Control: 75.0%
[11]; 56DAA, 3 g ai/ha
  Mean % Weed Control: 27.5% and 48.8%
[11]; 77DAA, 3 g ai/ha
  Mean % Weed Control: 40.0%
[11]; 77DAA, 4 g ai/ha
  Mean % Weed Control: 82.5%
[11]; 84DAA, 4 g ai/ha
  Mean % Weed Control: 30.0%
[12]; 15DAA
  Mean % Weed Control: 10.0%
[12]; 61DAA
  Mean % Weed Control: 85.0% and 67.4%
[12]; 78DAA
  Mean % Weed Control: 76.3%
[13]; 3 g ai/ha
  Mean % Weed Control: 30.0%
[13]; 4 g ai/ha
  Mean % Weed Control: 35.0%
